SMILES strings stand for the structures.

Assay [1] has as its system macrophage-lipid complex on the arterial endothelium. Put plainly: Fatty streak analysis: macrophage-lipid complex on main artery of cholesterol-fed rabbits (Example 6). Type of assay: in vivo, New Zealand White rabbit. The settings on record: for inhibition of accumulation of macrophage-lipid complex on the arterial endothelium (conclusion): 0.1% in 1% cholesterol diet; for area of macrophage-lipid complex accumulated on the arterial endothelium, compared to control group / M-L (macrophage-lipid) complex area: 1% cholesterol diet, 6 weeks, 0.1% naringin or naringenin; for M-L (macrophage-lipid) complex area: proportion of total arterial area, control 35. An excerpt:
RC4 diet comprises 7.6% moisture, 22.8% crude protein, 2.8% crude fat, 8.8% crude ash, 14.4% crude cellulose and 43.6% soluble nitrogen-free substances. The rabbits were bred for 6 weeks while being allowed free access to the diets and water. The rabbits bred in (Step 1) were sacrificed and their chest were incised. The main artery was cut out therefrom in a length of about 5 cm downward from the site 1 cm above the aortic valve and the fat surrounding the main artery was removed. The main artery was incised in the middle along the longitudinal axis and pinned to a dish. The moist artery was photographed and, then, staining of fatty streak was carried out in accordance with the method of […]., et al. (J. Lab. Clin. […] A part of the incised main artery was washed three times by 2 min. with anhydrous propylene glycol and stained for 30 min. with a saturated solution of Oil Red O (ORO, Sigma Co.) dissolved in propylene glycol. Thereafter, the artery was washed twice by 3 min. with 85% propylene glycol to remove remaining staining solution and, then washed with physical saline. The artery was photographed and the photograph was traced. The area of stained region (fatty streak region) was determined with an image analyzer (LEICA, Q-600, Germany) and its proportion (%) to the total arterial area was calculated. On the other hand, the other part of the main artery was stained in accordance with hematoxylin-eosin (H&E) and Masson's trichrome staining methods and observed under a microscope to confirm whether the macrophage-lipid complexes were accumulated in the intima, internus, elastic lamina and media.

A short description of assay [2]: Serum GOT, GPT and γGTP in a person (Example 7, Step 4). Type of assay: in vivo. The settings on record: human, oral, 10 mg/kg daily. Here is the method:
Naringin was orally administered to a person at a daily dose of 10 mg/kg for 68 days and serum GOT, GPT and γGTP levels were determined just before the administration (day 0), and 45 and 68 days after the administration (day 45 and day 68), respectively. Consequently, serum GOT levels at day 45 and day 68 decreased by 17%, respectively, in comparison to that of day 0. Serum GPT levels at day 45 and day 68 decreased by 15% and 19%, respectively, in comparison to that of day 0. Further, serum γGTP levels at day 45 and day 68 decreased by 25% and 51%, respectively, in comparison to that of day 0.

The nature of assay [3]: Serum GOT and GPT levels in rats (Example 7). Type of assay: in vivo, Sprague-Dawley rat. The settings on record: 1% cholesterol diet plus 0.02% naringin, six weeks. From the text:
20 four-week-old Sprague-Dawley rats (Taihan laboratory animal center, Korea) each weighing about 90 to 110 g were evenly divided into two dietary groups by a randomized block design. The rats of the two groups were fed with two different high-cholesterol diets, i.e., AIN-76 laboratory animal diet (ICN Biochemicals, Cleveland, Ohio, U.S.A.) containing 1% cholesterol (Control group), and 1% cholesterol plus 0.02% naringin, respectively.
Blood samples were taken from the rats of the two dietary groups and serum GOT (glutamate-oxaloacetate transaminase) and GPT (glutamate-pyruvate transaminase) levels were determined in accordance with the method of Reitman and Frankel (Reitman, S. and J. S. Frankel, Am. J. Clin. Pathol., 28, 56(1956)). GOT and GPT are synthesized in the liver and heart, and released into blood stream upon the damage of these organs. Accordingly, GOT and GPT are representative markers of the liver-function and high serum GOT and GPT levels mean severe damage of the liver.

A short description of assay [4]: Serum γGTP in a habitual drinker (Example 7, Step 4). Type of assay: in vivo. The settings on record: human, oral, 6 mg/kg daily, 30 days; day 0: 129 IU/l. Here is the method: On the other hand, naringin was orally administered to a person, who had drunk alcoholic beverages habitually in an amount of 100 cc per day, at a daily dose of 6 mg/kg for 30 days and serum γGTP level was determined just before the administration (day 0) and 30 days after the administration (day 30). Consequently, initial serum γGTP level at day 0 was 129 IU/l, while that of day 30 decreased to 69 IU/l which is within the normal range.

The subject of a further assay is hepatic cells. The following applies: rabbits, six weeks. Here is the method:
The same procedure as in (Step 1) was repeated except that 30 three-month old New Zealand White rabbits (Yeonam Horticulture and Animal Husbandry College, Korea) each weighing about 2.5 to 2.6 kg were used in place of the rats, and the rabbits were fed for six weeks with three different diets, i.e., RC4 diet containing 1% cholesterol (Control group); 1% cholesterol plus 1 mg/kg Lovastatin® (Comparative group); and 1% cholesterol plus 0.1% naringin, respectively.
Thereafter, the livers were separated from the rabbits and the histopathological observations were carried out as follows.
The rabbits were anesthetized with an intramuscular injection of ketamine (75 mg/kg) and subjected to an abdominal incision. […] The fixed liver was washed sufficiently with water, dehydrated stepwise with 70%, 80%, 90% and 100% ethanol and, then, embedded in paraffin. The embedded liver was sectioned in 4 μm thickness with a microtome and stained with hematoxylin and eosin. The stained liver specimen was made transparent with xylene, mounted with permount, and then observed under a microscope to confirm the presence of lesions.

Regarding `O=C1C[C@@H](c2ccc(O)cc2)Oc2cc(O)cc(O)c21` [naringenin], the “inhibition of accumulation of macrophage-lipid complex on the arterial endothelium (conclusion)” value in assay [1] is “strongly inhibit”. In assay [1] (1 mg/kg Lovastatin), the “area of macrophage-lipid complex accumulated on the arterial endothelium, compared to control group” value is reported as “decreased significantly” and the “M-L (macrophage-lipid) complex area” value is recorded as 13%.
In the case of `C[C@@H]1O[C@@H](O[C@H]2[C@H](Oc3cc(O)c4c(c3)O[C@H](c3ccc(O)cc3)CC4=O)O[C@H](CO)[C@@H](O)[C@@H]2O)[C@H](O)[C@H](O)[C@H]1O` [naringin, Naringin], in assay [2] (day 45), the “decrease of serum GOT level, day 45 vs day 0” value is recorded as 17%; the “decrease of serum GPT level, day 45 vs day 0” value was 15%; the “decrease of serum γGTP level, day 45 vs day 0” value came out at 25%. For the same compound, in assay [2] (day 68), the “decrease of serum GOT level, day 68 vs day 0” value is recorded as 17% and the “decrease of serum GPT level, day 68 vs day 0” value is on record as 19%. In assay [3], the “serum GOT level lower than control group” value was “about 30%” and the “serum GPT level lower than control group” value is listed as roughly 10%. The “serum γGTP level at day 30” value in assay [4] was found to be 69 IU/l. Besides, the “layer of macrophage-lipid complex on the arterial endothelium (FIGS. 1A-1C)” value in assay [1] (1 mg/kg Lovastatin, 0.1% naringin, control: thick layer) was “no or very thin layers of macrophage-lipid complex”. The “inhibition of accumulation of macrophage-lipid complex on the arterial endothelium (conclusion)” value in assay [1] is “strongly inhibit”. In assay [1] (1 mg/kg Lovastatin), the “area of macrophage-lipid complex accumulated on the arterial endothelium, compared to control group” value is given as “decreased significantly” and the “M-L (macrophage-lipid) complex area” value is listed as 12%. Also, the “occurrence of fatty liver” value in the assay with hepatic cells (1% cholesterol diet plus 0.1% naringin) is given as “strongly inhibits the occurrence of fatty liver”. Moreover, the “microscopic features of the liver (FIGS. 2A-2C)” value with hepatic cells (1% cholesterol diet, 1 mg/kg Lovastatin, 0.1% naringin) was “normal and the deposition of fat is not observed”.

For the origin of these results see patent US6165984A, “Naringin and naringenin as inhibitors of acyl CoA-cholesterol-o-acyltransferase” (Korea Institute of Science & Technology, priority 1997, dated 2000).
